Reference: patent publication US10064839B2, “Methods of treating liver diseases” (Zafgen, Inc., priority 2012, dated 2018)

What was measured:
[1] = target: T1, recombinant human MetAP2 (Homo sapiens, UniProt P50579); experiment: Recombinant human MetAP2 inhibition assay (MAS substrate, Amplex red fluorescence); format: biochemical; settings: human recombinant MetAP2 manganese enzyme, 0.75 mM MAS substrate, 30 minutes at 25° C., pH 7.5; read-out: Activity (MetAP2 IC50 class)
T1 construct: made in house; host or cells: Sf9 insect cells
T1 sequence (P50579 whole entry): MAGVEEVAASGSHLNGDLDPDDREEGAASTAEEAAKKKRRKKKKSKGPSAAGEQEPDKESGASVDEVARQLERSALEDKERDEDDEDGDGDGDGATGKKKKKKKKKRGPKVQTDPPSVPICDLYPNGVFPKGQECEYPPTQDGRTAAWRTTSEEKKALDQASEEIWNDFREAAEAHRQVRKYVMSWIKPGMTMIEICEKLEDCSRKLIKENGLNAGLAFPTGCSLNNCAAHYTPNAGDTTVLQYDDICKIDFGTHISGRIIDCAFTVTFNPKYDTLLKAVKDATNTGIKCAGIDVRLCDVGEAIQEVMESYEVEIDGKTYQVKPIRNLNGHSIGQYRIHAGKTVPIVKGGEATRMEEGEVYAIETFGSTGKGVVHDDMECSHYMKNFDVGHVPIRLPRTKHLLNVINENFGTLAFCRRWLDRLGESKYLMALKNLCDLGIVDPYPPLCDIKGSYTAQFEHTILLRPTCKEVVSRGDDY
Procedure: Compounds are tested for their capacity to inhibit recombinant human MetAP2 activity using the following assay.
Human recombinant MetAP2 expressed in Sf9 cells followed by affinity purification and EDTA treatment to remove endogenous active site cation was dialysed against MnCl2 to produce the manganese enzyme used in the assay. The assay was carried out for 30 minutes at 25° C. in 50 mM HEPES buffer containing 100 mM NaCl, pH 7.5 the presence of 0.75 mM Methionine-Alanine-Serine (MAS) substrate and 50 µg/ml amino acid oxidase using a dilution of purified MetAP2 giving >3-fold signal: noise. Cleavage of the substrate by MetAP2 and oxidation of free methionine by amino acid oxidase was detected and quantified using fluorescence generated by Amplex red (10-acetyl-3,7-dihydroxyphenoxazine) in combination with horseradish peroxidase which detects H2O2 released during the oxidation step. The fluorescent signal was detected using a multiwell fluorimeter. Compounds were diluted in DMSO prior to addition to assay buffer, the final DMSO concentration in the assay being 1%.
IC50 values are calculated using the XLfit software package (version 2.0.5).

[2] = system: diet induced obese mice (C57BL6); experiment: Diet induced obese mice, 10 days oral 30 mg/kg: body weight and serum cholesterol; format: in vivo, mouse; settings: DIO C57BL6 mice, 30 mg/kg oral gavage; for Cholesterol Change: serum
Procedure: Compounds were tested in diet induced obese mice (C57BL6) that were on a 65% high fat diet for 8-10 weeks. Mice were dosed for 10 days by oral gavage with 30 mg/kg of the compounds listed. Their body weights were recorded along with serum chemistries including cholesterol.

[3] = system: NASH mice; experiment: Non-alcoholic steatohepatitis (STZ + high fat diet) mouse model; format: in vivo
Procedure: NASH was induced in 48 male mice by a single subcutaneous injection of 200 μg streptozotocin (STZ; Sigma-Aldrich) in the back of mice 2 days after birth, and by feeding with high fat diet (HFD; 57 kcal % fat) after 4 weeks of age. At 5 weeks of age, the NASH mice were randomized into 6 groups of 8 mice based on body weight. Eight male littermates, fed with normal diet (without STZ treatment, were used for the Normal group. Vehicle, Compound A and Telmisartan were administered by the oral route in a volume of 10 mL/kg body weight.
Compound A was administered twice daily at doses of 1, 3 or 10 mg/kg body weight (i.e., 2, 6 or 20 mg/kg/day) and once daily at dose of 30 mg/kg body weight. Telmisartan was administered once daily at a dose of 10 mg/kg body weight.
C57BL/6 mice (15-day pregnant female) were obtained from Charles River Laboratories Japan (Japan). The animals were maintained in a SPF facility under controlled conditions of temperature (23±2° C.), humidity (45±10%), lighting (12-hour artificial light and dark cycles; light from 8:00 to 20:00) and air exchange. A high pressure (20±4 Pa) was maintained in the experimental room to prevent contamination of the facility.
Mice were fasted for 4 hours before blood was collected at the time of sacrifice. HbA1c levels were quantified in whole blood samples by DCA Vantage Analyzer (Siemens Healthcare Diagnostics, USA). For plasma biochemistry, blood was collected in polypropylene tubes with anticoagulant (Novo-Heparin;) and centrifuged at 1,000×g for 15 minutes at 4° C. The supernatant was collected and stored at −80° C. until use. Plasma levels of glucose, ALT, TG and total cholesterol were measured by FUJI DRI-CHEM 7000 (Fujifilm, Japan). Plasma insulin concentration was quantified by the Ultra Sensitive Mouse Insulin ELISA Kit.
Liver total lipid-extracts were obtained by Folch's method (Folch J. et al., J. Biol. Chem. 1957; 226: 497). Liver samples were homogenized in chloroform-methanol (2:1, v/v) and incubated overnight at room temperature. After washing with chloroform-methanol-water (8:4:3, v/v/v), the extracts were evaporated to dryness, and dissolved in isopropanol. Liver TG levels were measured by Triglyceride E-test (Wako Pure Chemical Industries). Extracts were diluted 2-fold in isopropanol when the TG content exceeded the detection limit.
For HE staining, sections were cut from paraffin blocks of liver tissue prefixed in Bouin's solution and stained with Lillie-Mayer's Hematoxylin (Muto Pure Chemicals, Japan) and eosin solution (Wako Pure Chemical Industries). NAFLD Activity score (NAS) was calculated according to the criteria of Kleiner (Kleiner D E et al., Hepatology, 2005; 41:1313). To visualize collagen deposition, Bouin's fixed liver sections were stained using picro-Sirius red solution (Waldeck, Germany). To visualize macro- and microvesicular fat, cryosections were cut from frozen liver tissues, prefixed in 10% neutral buffered formalin, embedded in Tissue-Tek O.C.T. compound (Sakura Finetek Japan, Japan), and stained with Oil Red O (Sigma-Aldrich). For immunohistochemistry, sections were cut from frozen liver tissues embedded in Tissue-Tek O.C.T. compound and fixed in acetone. Endogenous peroxidase activity was blocked using 0.03% H2O2 for 5 minutes, followed by incubation with Block Ace (Dainippon Sumitomo Pharma, Japan) for 10 minutes. The sections were incubated with a 200-fold dilution of anti-F4/80 antibody (BMA Biomedicals, Switzerland) over night at 4° C. After incubation with secondary antibody (HRP-Goat anti-rat antibody, Invitrogen, USA), enzyme-substrate reactions were performed using 3, 3′-diaminobenzidine/H2O2 solution (Nichirei, Japan). […]

Molecule: O=C(O)c1c(NS(=O)(=O)c2ccccc2)ccc2c3c(cnc12)OCC3
- IC50 [1]: < 50 nM

Molecule: CCN(CC)C/C=C\c1ccccc1S(=O)(=O)Cc1ccc(-c2ccoc2)c(OC)c1C(=O)O
- Body Weight Change [2]: −6.0%
- Cholesterol Change [2]: No change

Molecule: CCN(CC)C/C=C\c1cc(F)ccc1S(=O)(=O)Nc1ccc2c(c1C(=O)O)OCc1occc1-2
- Body Weight Change [2]: −7.0%
- Cholesterol Change [2]: −35%

Molecule: CCN(CC)C/C=C\c1cc(F)ccc1S(=O)(=O)Nc1ccc2c(c1C(=O)O)OC[C@H]1CCCN21
- Body Weight Change [2]: −2.0%
- Cholesterol Change [2]: −24%

Molecule: CCN1CCC[C@H]1C(=O)N(C)Cc1cc(F)ccc1S(=O)(=O)Nc1ccc2c(c1C(=O)O)OC[C@@H]1C[C@H]21 (mixture of isomers)
- IC50 [1]: 50 to 500 nM

Molecule: CCN1CC[C@@H](N(C)C(=O)Cc2cc(F)ccc2S(=O)(=O)Nc2ccc3c(c2C(=O)O)OC[C@@H]2C[C@H]32)C1 (mixture of isomers)
- IC50 [1]: 50 to 500 nM

Molecule: CCN1CC[C@H](N(C)C(=O)Cc2cc(F)ccc2S(=O)(=O)Nc2ccc3c(c2C(=O)O)OC[C@@H]2C[C@H]32)C1 (mixture of isomers)
- IC50 [1]: 50 to 500 nM

Molecule: CCN1CC[C@@H](NC(=O)Cc2cc(F)ccc2S(=O)(=O)Nc2ccc3c(c2C(=O)O)OC[C@@H]2C[C@H]32)C1 (mixture of isomers)
- IC50 [1]: 50 to 500 nM

Molecule: CCN(CC)CC/C=C\c1cc(F)ccc1S(=O)(=O)Nc1ccc2c(c1C(=O)O)OC[C@@H]1C[C@H]21 (racemic) [(1aRS,7bSR)-5-[2((Z)-4-Diethylaminobut-1-enyl)-4-fluorobenzenesulfonyl-amino]-1,1a,2,7b-tetrahydrocyclopropa[c]chromene-4-carboxylic acid]
- IC50 [1]: < 50 nM

Molecule: CCN(CC)C/C=C/c1cc(F)ccc1S(=O)(=O)Nc1ccc2c(c1C(=O)O)OC[C@@H]1C[C@]21C (racemic) [(1aRS,7bSR)-5-[2-((E)-3-Diethylaminoprop-1-enyl)-4-fluorobenzenesulfonylamino]-7b-methyl-1,1a,2,7b-tetrahydrocyclopropa[c]chromene-4-carboxylic acid]
- IC50 [1]: 50 to 500 nM

Molecule: CCN(CC)C/C=C\c1cc(F)ccc1S(=O)(=O)Nc1ccc2c(c1C(=O)O)OC[C@@H]1[C@H]2C1(F)F (racemic) [(1aRS,7bSR)-5-[2-((Z)-3-Diethylaminoprop-1-enyl)-4-fluorobenzene-sulfonylamino]-1,1-difluoro-1,1a,2,7b-tetrahydrocyclopropa[c]chromene-4-carboxylic acid]
- IC50 [1]: < 50 nM

Molecule: CCN(CC)C/C=C\c1cc(F)ccc1S(=O)(=O)Nc1ccc2c(c1C(=O)O)OC[C@@H]1C[C@]21C (racemic) [(1aRS,7bSR)-5-[2-((Z)-3-Diethylaminoprop-1-enyl)-4-fluorobenzenesulfonylamino]-7b-methyl-1,1a,2,7b-tetrahydrocyclopropa[c]chromene-4-carboxylic acid]
- IC50 [1]: < 50 nM

Molecule: CCN1CC(CNc2ccccc2S(=O)(=O)Nc2ccc3c(c2C(=O)O)OC[C@@H]2C[C@H]32)C1 (racemic) [(1aRS,7bSR)-5-{2-[(1-Ethylazetidin-3-ylmethyl)amino]benzene-sulfonylamino}-1,1a,2,7b-tetrahydrocyclopropa[c]chromene-4-carboxylic acid]
- IC50 [1]: 50 to 500 nM

Molecule: O=C(O)c1c(NS(=O)(=O)c2ccc(F)cc2/C=C\CN2CC(O)C2)ccc2c1OC[C@@H]1C[C@H]21 (racemic) [(1aRS,7bSR)-5-{2[(Z)-3-(3-Hydroxyazetidin-1-yl)prop-1-enyl]-4-fluorobenzene-sulfonylamino}-1,1a,2,7b-tetrahydrocyclopropa[c]chromene-4-carboxylic acid]
- IC50 [1]: < 50 nM

Molecule: CC(C)NC/C=C\c1cc(F)ccc1S(=O)(=O)Nc1ccc2c(c1C(=O)O)OC[C@@H]1C[C@H]21 (racemic) [(1aRS,7bSR)-5-{2[(Z)-3-(propan-2-yl)aminoprop-1-enyl]-4-fluorobenzene-sulfonylamino}-1,1a,2,7b-tetrahydrocyclopropa[c]chromene-4-carboxylic acid]
- IC50 [1]: 50 to 500 nM

Molecule: CCN1CC[C@@H](Cc2cc(F)ccc2S(=O)(=O)Nc2ccc3c(c2C(=O)O)OCC2CC32)C1 (single isomer, unassigned) [listing 1 of 2 here]
- IC50 [1]: 50 to 500 nM

Molecule: CCN(CC)C/C=C\c1ccccc1S(=O)(=O)Nc1ccc2c(c1C(=O)O)OCC1CC21 (single isomer, unassigned) [listing 1 of 2 here]
- IC50 [1]: 50 to 500 nM

Molecule: O=C(O)c1c(NS(=O)(=O)c2ccc(F)cc2/C=C\CN2CCCC2)ccc2c1OCC1CC21 (single isomer, unassigned) [listing 1 of 2 here]
- IC50 [1]: 50 to 500 nM

Molecule: CCNC/C=C\c1cc(F)ccc1S(=O)(=O)Nc1ccc2c(c1C(=O)O)OCC1CC21 (single isomer, unassigned) [listing 1 of 2 here]
- IC50 [1]: < 50 nM

Molecule: CN(C)CCCNc1ccccc1S(=O)(=O)Nc1ccc2c(c1C(=O)O)OCC1CC21 (single isomer, unassigned)
- IC50 [1]: < 50 nM

Molecule: CN(C)CCCCNc1ccccc1S(=O)(=O)Nc1ccc2c(c1C(=O)O)OCC1CC21 (single isomer, unassigned)
- IC50 [1]: < 50 nM

Molecule: CCN1CC[C@@H](Cc2cc(F)ccc2S(=O)(=O)Nc2ccc3c(c2C(=O)O)OCC2CC32)C1 (single isomer, unassigned) [listing 2 of 2 here]
- IC50 [1]: < 50 nM

Molecule: CCN(CC)C/C=C\c1ccccc1S(=O)(=O)Nc1ccc2c(c1C(=O)O)OCC1CC21 (single isomer, unassigned) [listing 2 of 2 here]
- IC50 [1]: < 50 nM

Molecule: O=C(O)c1c(NS(=O)(=O)c2ccc(F)cc2/C=C\CN2CCCC2)ccc2c1OCC1CC21 (single isomer, unassigned) [listing 2 of 2 here]
- IC50 [1]: 50 to 500 nM

Molecule: CCNC/C=C\c1cc(F)ccc1S(=O)(=O)Nc1ccc2c(c1C(=O)O)OCC1CC21 (single isomer, unassigned) [listing 2 of 2 here]
- IC50 [1]: 50 to 500 nM

Molecule: CCCc1nc2c(C)cc(-c3nc4ccccc4n3C)cc2n1Cc1ccc(-c2ccccc2C(=O)O)cc1 [Telmisartan, reference compound]
- Mean body weight at the day before sacrifice ([3]; Telmisartan 10 mg/kg once daily oral, 5 to 9 weeks of age, Vehicle 18.8±1.0 g): 15.6 ± 1.8 g
- Fibrosis area (Sirius red-positive area) ([3]; Telmisartan 10 mg/kg once daily, Vehicle 1.07±0.18%): 0.42±0.08%
- Inflammation area (F4/80-positive area) ([3]; Telmisartan 10 mg/kg once daily, Vehicle 3.57±0.88%): 3.84±0.86%
- NAFLD Activity score (NAS) ([3]; Telmisartan 10 mg/kg once daily, Vehicle 5.4±0.9): 2.3±0.7
- Fat deposition area (oil red-positive area) ([3]; Telmisartan 10 mg/kg once daily, Vehicle 23.57±6.52%): 17.29±7.66%
- Liver TG content ([3]; Telmisartan 10 mg/kg once daily, Vehicle 67.3±29.0): 30.7±11.4 mg/g liver

Molecule: (1aRS,7bSR)-5-{2[(Z)-3-((R)-3-Hydroxypyrrolidin-1-yl)aminoprop-1-enyl]-4-fluorobenzene-sulfonylamino}-1,1a,2,7b-tetrahydro-cyclopropa[c]chromene-4-carboxylic acid
- IC50 [1]: 50 to 500 nM

Molecule: (1aRS,7bSR)-5-{2[(Z)-3-((S)-3-hydroxypyrrolidin-1-yl)aminoprop-1-enyl]-4-fluorobenzenesulfonylamino}-1,1a,2,7b-tetrahydrocyclopropa[c]chromene-4-carboxylic acid
- IC50 [1]: 50 to 500 nM
